From US20230172913A1, “COMPOUNDS FOR USE IN THE REACTIVATION OF HIV IN LATENT HIV-INFECTED CELLS” (CENTRE NATIONAL DE LA RECHERCHE SCIENTIFIQUE, priority 2020, published 2023)
Values joined by “and” are separate entries in the source; they are usually repeats but may differ in a detail not shown here. Identical values can stand only once.

Columns and labels:
[1] = system: latent T-CD4+ lymphocyte cells from HIV-1 patients; assay: Ex vivo LRA activity on quiescent T-CD4+ cells of HIV-1 patients (p24); format: cell-based, human; details: for LRA efficacy compared with BST-1: 50-100 nM, 18-20 h, p24 in supernatant
Description: FIG. 5 Ex vivo LRA activity on quiescent T-CD4^+ lymphocyte cells of HIV-1 patients. T-CD4 cells were isolated by negative selection before elimination of activated cells (CD25^+, CD69^+, HLA-DR^+) to obtain quiescent cells which were treated with drugs for 18-20 h to avoid reinfections. The LRA activity of the compounds (2) (C-2) and (3) (C-3) was determined by monitoring the viral protein p24 in the supernatant using a commercial ELISA test improved by the use of a luminescent substrate. The detection limit of p24 was 0.2 pg/ml. The response to BST-1 (10 nM) was set at 100% to allow comparison of LRA efficacy between patients (1 point=1 patient).
The ex vivo LRA activity of the compounds according to the invention was tested on latent T-CD4^+ lymphocyte cells from HIV-1 patients. All 8 patients had been under ART treatment for at least 6 months and their viral load was undetectable. Blood samples (20 ml) were taken (agreement with Montpellier University Hospital, Resp: Dr Edouard Tuaillon). After purification of white blood cells on Ficoll-Hypaque, negative selection of T-CD4^+ cells, elimination of activated T-CD4 cells (CD25^+, CD69^+, HLA-DR^+) (Milenyi kits), quiescent cells were treated with the compounds for 18-20 h to avoid reinfections. An assay p24 was then performed using a luminescent reagent (Luminata forte, Millipore) at the end of the Innotest. The sensitivity of the test thus modified is ˜0.2 pg p24/ml. The response to BST-1 varied between patients from 0.2 to 80 pg/ml.

[2] = system: J-Lat 9.2 latent cells; assay: LRA activity on J-Lat 9.2 latent cells (GFP, FACS); format: cell-based; details: 5 μM, 24 h, GFP fluorescence by FACS
Description: FIG. 3A LRA activity of the compounds (1), (2) (3) (C-1, C-2, C-3) and SAHA (histone deacetylase inhibitor) at 5 μM on J-Lat 9.2 latent cells (derived from Jurkats). J-Lat 9.2 have a complete (single) HIV genome with a non-functional Env gene, and a GFP instead of Nef (Symons, J., and al., Retrovirology, 2017. 14(1): p. 2; Jordan, A., and al., The EMBO journal, 2003. 22(8): p. 1868-77). The activation of these viruses can be followed by the production of GFP and therefore by the detection of green fluorescence in the cells, followed by FACS. n=3. Means+/−SEM.**, p<0.01, compared to the drug-free control (One-way ANOVA).
To test the LRA effect of the molecules, JLat9.2 cells were first used. This latent cell line (source: NIH AIDS Reagents Program, NARP) derived from Jurkat cells contains an HIV genome with an inactivated Env gene and a GFP instead of Nef (Retrovirology, 14 (2017) 2). The lifting of latency is accompanied by the emission of fluorescence from GFP. The cells were treated with molecules at 5 μM for 24 h before analysis of the cells with a FACScalibur to determine the % of cells emitting fluorescence. It can be seen in FIG. 3A that the compound (2) at 5 μM has a significant LRA activity, of the order of 20-30% of that of SAHA.

[3] = system: Tat protein; assay: Transactivation by Tat in HeLa cells (LTR-firefly/TK-renilla luciferase); format: cell-based, HIV-1; details: for transactivation by extracellular Tat relative to control / transactivation by intracellular Tat relative to negative control: 5 μM compound, HeLa, 24 h; for transactivation by extracellular Tat relative to control: 200 nM Tat extra; for transactivation by intracellular Tat relative to negative control: Tat transfected (Tat intra)
Description: FIG. 2 Evaluation of the transactivating activity of the Tat protein of HeLa cells in the presence of 5 μM of the compound (2) (C-2) or of the compound (3) (C-3). HeLa cells were transfected with plasmids containing LTR-firefly and TK-renilla. In the Tat intra condition, Tat is co-transfected. 18 h after transfection the compounds (2) or (3) were added (5 μM), as well as 200 nM Tat for the Tat extra condition. The cells are lysed for the luciferase tests 24 hours later. The firefly/renilla ratio obtained under control conditions was set at 100. n=2. Means+/−SEM.**, p<0.01, ***, p<0.001 and ****, p<0.0001 compared to the drug-free control (One-way ANOVA).
For this test, the effect of the molecules on transactivation by the extracellular or intracellular Tat protein was monitored by the activity of two luciferases. On the one hand the Firefly luciferase, which is under the control of a viral promoter LTR dependent on the Tat protein, and on the other hand the Renilla luciferase (internal control), under the control of a Thymidine kinase cellular promoter independent of the Tat protein. Transactivation is expressed by the Firefly/Renilla ratio. All plasmids and the procedure have been described (Mol Biol Cell 15 (2004), 2347).
This series of experiments was carried out in the HeLa line. Cells were transfected with PEImax (Nature Comms 9 (2018) 2251). The drugs and Tat (if Tat extra) were added 18 h after transfection as indicated, and left for 24 h before lysing the cells. The luciferases are then assayed using Promega's Dual-Glo kit and a Tecan SPARK 10M plate reader. Extracellular Tat has the property of being able to enter into the cells.

[4] = molecular target: T1, Tat protein (86 residues, isolate BH10) (Human immunodeficiency virus type 1 group M subtype B, UniProt P69697); assay: Surface plasmon resonance (Biacore) on immobilized Tat; format: binding, HIV-1
T1 construct: The recombinant Tat protein (86 residues, isolate BH10); made in house; host or cells: E. coli
T1 sequence (P69697 whole entry): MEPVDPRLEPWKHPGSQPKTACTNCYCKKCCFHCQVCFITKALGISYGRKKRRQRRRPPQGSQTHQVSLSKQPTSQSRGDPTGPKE
Description: (§1) The recombinant Tat protein (86 residues, isolate BH10) was produced in E. coli and purified on heparin-Sepharose then by HPLC as described (Mol Biol Cell 15 (2004), 2347). The compound (2) (MolPort) being fluorescent (λex 320 nm; λem 410 nm), the fluorescence polarization technique (Methods Appl. Fluoresc. (2016) 4(2)) and a PTI fluorimeter were used for the study of the binding of said compound (17 nM) to the Tat protein (1-60 μM) in citrate buffer (50 mM citrate; 150 mM NaCl; pH 7.2). A Kd of the order of 5 μM was measured. An identical value (˜4 μM) was obtained by surface plasmon resonance (SPR; Biacore) by passing the compound (2) in citrate buffer over immobilized Tat on a CMS chip.

[5] = molecular target: T1, Tat protein (86 residues, isolate BH10); assay: Fluorescence polarization binding of compound to recombinant Tat protein; design: species or system HIV-1
Description: as §1

[6] = system: latent OM10.1 cells (promyeloblasts); assay: LRA activity on OM10.1 latent cells (p24 ELISA); format: cell-based; details: 5 μM, p24 in supernatant
Description: FIG. 3B LRA activity of the compound (2) (C-2) and SAHA at 5 μM on latent OM10.1 cells (promyeloblasts). These latent cells, after induction, produce infectious viruses which are assayed in the supernatant by ELISA p24. n=2. Means+/−SEM.*, p<0.05 and ***, p<0.001 compared to the control medium alone (One-way ANOVA).
The results for the compound (2) were confirmed using another latent cell line, OM10.1 (promyeloblasts; source NARP; PLoS Pathog. 11 (2015) 1) which produces infectious HIV after induction. It was assayed by the viral antigen p24 (HIV-1 capsid protein) in the supernatant using an ELISA kit (Innotest).

[7] = system: Tat protein; assay: Transactivation test on primary T-CD4 cells; format: cell-based, HIV-1; details: primary T-CD4 cells transfected with Tat, 24 h
Description: FIG. 6 Transactivation test on primary T-CD4 cells. Primary T-CD4 cells were isolated from the blood of healthy donors, then they were transfected with plasmids containing Tat, LTR-firefly and TK-renilla. 18 h after transfection different concentrations of the compound (2) (C-2) were added, and the lysed cells for the luciferase tests 24 h later. n=3. Means+/−SEM. *, p<0.05 and ***, p<0.001 compared to the control without C-2 (One-way ANOVA).
To verify this point, a transactivation test was carried out with primary T-CD4 cells. […] The need to use doses 100 times higher on cancerous cells (that is to say 5-10 μM) is due to the cancerization process of these cells.

[8] = system: latent cell line ACH-2; assay: Specificity: HIV-1 production in ACH-2 latent cells with mutated TAR (p24 ELISA); format: cell-based; details: compound (2), SAHA 5 μM, BST-1 10 nM
Description: Means+/−SEM. ****, p<0.0001 compared to the solvent control (One-way ANOVA).
Once induced, these cells produce infectious virions. For these tests, the viral antigen p24 in the cell supernatant was assayed with the Innotest p24 ELISA kit.

[9] = molecular target: T2, Tat-TAR transcription complex (Human immunodeficiency virus type 1 group M subtype B, UniProt P69697); assay: Retardation gel, affinity for Tat-TAR complex; format: binding, HIV-1
T2 construct: made in house; host or cells: E. coli
T2 sequence (P69697 whole entry, one chain of several): as the sequence (P69697 whole entry) above
Description: FIG. 1A Delay gel showing the migration of TAR RNA which is free or complexed with the Tat protein (Tat/TAR) in the presence of different concentrations (0 to 120 nM) of the compound (2) (C-2). Tat (400 nM) was incubated with 200 nM of TAR-FAM (WT or Abulge) for 1.5 h in the absence or presence of the compound (2), before separation on a 0.5×TBE 8% acrylamide gel, and acquisition of the fluorescence image. The proteins from the gel were then transferred to a nitrocellulose membrane for Tat visualization by Western blot.
FIG. 1B Quantification of the affinity of the compound (2) (C-2) for the Tat-TAR transcription complex. The Tat-TAR fluorescence band of duplicate gels was quantified and the results are shown in the graph (AU, arbitrary units). n=2. Means+/−SEM. *, p<0.05; ***, p<0.001 compared to the control without the compound (2) (One-way ANOVA).
The affinity of the compound (2) for the Tat-TAR complex was studied by retardation gel. […] The fluorescence of the gel is first visualized with a Chemidoc (Biorad) to detect fluorescein (that is to say TAR). […]

Structure (SMILES)	LRA efficacy compared with BST-1 [1]	LRA activity (in words) [2]	transactivation by extracellular Tat relative to control [3] [times]	transactivation by intracellular Tat relative to negative control [3] [times]	concentration sufficient for the LRA effect ex vivo ([1]; latent primary cells)	Kd [4] [µM]	Kd [5] [µM]	LRA activity relative to that of SAHA [6] [%]	effective concentrations on laboratory cell lines ([3]; all the tests on laboratory cell lines (HeLa and That)) [µM]	concentration most effective in activating transactivation by Tat [7] [nM]	induction of HIV-1 production (p24) [8]	concentration stabilizing the Tat-TAR transcription complex [9]	Kd ([9]; retardation gel, 400 nM Tat, 200 nM TAR, 1.5 h at 25° C.) [µM]
O=C(Nc1ccc(-c2nc3ccccc3[nH]2)cc1)c1cccc(OCc2ccccc2)c1 [(3), N-[4-(1H-1,3-benzodiazol-2-yl)phenyl]-3-(benzyloxy)benzamide]	at least as effective as BST-1	close to that of SAHA	108	9	–	–	–	–	–	–	–	–	–
COc1ccc(-c2nn3ccnc3s2)cc1NC(=O)c1ccc(OCc2ccccc2)cc1 [(1), 4-(benzyloxy)-N-(5-{imidazo[2,1-b][1,3,4]thiadiazol-2-yl}-2-methoxyphenyl)benzamide]	–	significant activity	–	–	–	–	–	–	–	–	–	–	–
COc1cc(C(=O)Nc2cc(-c3nc4ccccc4[nH]3)ccc2C)ccc1OCc1ccc(Cl)cc1 [Compound (2), N-[5-(1H-1,3-benzodiazol-2-yl)-2-methylphenyl]-4-[(4-chlorophenyl)methoxy]-3-methoxybenzamide]	at least as effective as BST-1	–	60	3.9	50 to 100 nM and 50 nM	~4	~5	~40	~5	30	incapable of inducing the production of HIV-1	50 to 100 nM and 80 nM	~0.08
